Earlier results, collected in PMC9880028 (Drug Design, Development and Therapy, 2023).

System: WNK1
Settings: read-out: IC50 (WNK1); only WNK1 inhibitor published when the screen was conducted; ref US Patent application US 2008/0286809 A1, Dario Alessi

For `Cc1cc(O)c2c(=O)c3c(O)cc(O)c4c5c(O)cc(O)c6c(=O)c7c(O)cc(C)c8c1c2c(c34)c(c78)c65` [hypericin], the IC50 is given as 200 µM.
